Reference: PubChem BioAssay AID1845198 (Molecular Pharmacology Branch, DTP, NCI, 2023)

Tested on: 425362-245-T-J1 tumor spheroids, viability % test/control
Assay: Anticancer human tumor 425362-245-T-J1 patient-derived melanoma cell line growth inhibition
Conditions: spheroids with HUVEC and MSC; for IC50: curve of first compound; for viability, T/C: stronger effect = lower value
Outline: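 Single agents and combinations were tested on spheroids built from tumor cells plus HUVEC and hMSC, at half-log dilutions starting at or near clinical Cmax, else 10 microM; final DMSO 0.25% (v/v).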

[1] = second compound 1 µM, first compound 0.0316 µM
[2] = second compound 1 µM, first compound 0.1 µM
[3] = second compound 1 µM, first compound 0.316 µM
[4] = second compound 1 µM, first compound 1 µM
[5] = second compound 1 µM, first compound 3.16 µM
[6] = second compound 1 µM, first compound 10 µM
[7] = second compound 3.16 µM, first compound 0.0316 µM
[8] = second compound 3.16 µM, first compound 0.1 µM
[9] = second compound 3.16 µM, first compound 0.316 µM
[10] = second compound 3.16 µM, first compound 1 µM
[11] = second compound 3.16 µM, first compound 3.16 µM
[12] = second compound 3.16 µM, first compound 10 µM
[13] = second compound 10 µM, first compound 0.0316 µM
[14] = second compound 10 µM, first compound 0.1 µM
[15] = second compound 10 µM, first compound 0.316 µM
[16] = second compound 10 µM, first compound 1 µM
[17] = second compound 10 µM, first compound 3.16 µM
[18] = second compound 10 µM, first compound 10 µM
[19] = second compound 31.6 µM, first compound 0.0316 µM
[20] = second compound 31.6 µM, first compound 0.1 µM
[21] = second compound 31.6 µM, first compound 0.316 µM
[22] = second compound 31.6 µM, first compound 1 µM
[23] = second compound 31.6 µM, first compound 3.16 µM
[24] = second compound 31.6 µM, first compound 10 µM
[25] = second compound 100 µM, first compound 0.0316 µM
[26] = second compound 100 µM, first compound 0.1 µM
[27] = second compound 100 µM, first compound 0.316 µM
[28] = second compound 100 µM, first compound 1 µM
[29] = second compound 100 µM, first compound 3.16 µM
[30] = second compound 100 µM, first compound 10 µM
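Also: spheroids exposed to agents for 7 days.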

Compound | IC50 (second compound 1 µM) [nM] | IC50 (second compound 3.16 µM) [nM] | IC50 (second compound 10 µM) [nM] | IC50 (second compound 31.6 µM) [nM] | IC50 (second compound 100 µM) [nM] | viability, T/C [1] [%] | viability, T/C [2] [%] | viability, T/C [3] [%] | viability, T/C [4] [%] | viability, T/C [5] [%] | viability, T/C [6] [%] | viability, T/C [7] [%] | viability, T/C [8] [%] | viability, T/C [9] [%] | viability, T/C [10] [%] | viability, T/C [11] [%] | viability, T/C [12] [%] | viability, T/C [13] [%] | viability, T/C [14] [%] | viability, T/C [15] [%] | further results
CC(C)n1c(=O)n(C)c2cnc3cc(F)c(-c4ccc(OCCCN5CCCCC5)nc4)cc3c21 + Cn1nnc2c(C(N)=O)ncn2c1=O | 124 | 225 | 266 | 141 | < 31.6 | 57.7 | 55.8 | 36.1 | 20.8 | 13.7 | 5.19 | 77.4 | 67 | 43 | 20.6 | 19.5 | 6.63 | 74.2 | 72 | 45.1 | viability, T/C [16]: 21.4%; viability, T/C [17]: 18.9%; viability, T/C [18]: 5.99%; viability, T/C [19]: 67.8%; viability, T/C [20]: 58.5%; viability, T/C [21]: 32.8%; viability, T/C [22]: 19.8%; viability, T/C [23]: 14.5%; viability, T/C [24]: 6.37%; viability, T/C [25]: 45.8%; viability, T/C [26]: 23.7%; viability, T/C [27]: 17.5%; viability, T/C [28]: 12.1%; viability, T/C [29]: 8.75%; viability, T/C [30]: 5.3%
CC1COCCN1c1cc(-c2ccnn2C)c2ccnc(-c3ccn[nH]3)c2n1 (stereo not given) + Cn1nnc2c(C(N)=O)ncn2c1=O | < 31.6 | < 31.6 | < 31.6 | < 31.6 | < 31.6 | 34 | 9.93 | 9.37 | 7.42 | 8.52 | 7.26 | 46 | 13.1 | 8.7 | 8.72 | 9.76 | 9.55 | 33.1 | 12.4 | 6.43 | viability, T/C [16]: 8.73%; viability, T/C [17]: 8.17%; viability, T/C [18]: 7.97%; viability, T/C [19]: 41.4%; viability, T/C [20]: 10.8%; viability, T/C [21]: 8%; viability, T/C [22]: 8.25%; viability, T/C [23]: 8.57%; viability, T/C [24]: 9.27%; viability, T/C [25]: 16%; viability, T/C [26]: 8.9%; viability, T/C [27]: 6.62%; viability, T/C [28]: 5.43%; viability, T/C [29]: 8.9%; viability, T/C [30]: 6.85%
COc1cc(C)[nH]c(=O)c1CN1CCc2c(Cl)cc(C(OC)C3COC3)c(Cl)c2C1=O (stereo not given) + Cn1nnc2c(C(N)=O)ncn2c1=O | > 10000 | > 10000 | > 10000 | > 10000 | > 10000 | 87 | 96.6 | 95.9 | 92.1 | 89.8 | 84.7 | 114 | 103 | 110 | 105 | 101 | 92.4 | 104 | 99.9 | 114 | viability, T/C [16]: 114%; viability, T/C [17]: 95.8%; viability, T/C [18]: 97.6%; viability, T/C [19]: 113%; viability, T/C [20]: 111%; viability, T/C [21]: 100%; viability, T/C [22]: 107%; viability, T/C [23]: 89%; viability, T/C [24]: 93.5%; viability, T/C [25]: 94.4%; viability, T/C [26]: 90.4%; viability, T/C [27]: 90.3%; viability, T/C [28]: 89.7%; viability, T/C [29]: 88.3%; viability, T/C [30]: 71.8%
COc1ccc([C@@H](O)c2cc(-c3ncnc4cc(N5CCOCC5)ccc34)c(F)cc2Cl)nn1 + Cn1nnc2c(C(N)=O)ncn2c1=O | 2300 | 2570 | 2500 | 2670 | 2100 | 91 | 95.6 | 87.5 | 70.2 | 42.5 | 19.1 | 101 | 111 | 104 | 76.2 | 45.7 | 20.3 | 111 | 117 | 113 | viability, T/C [16]: 74.8%; viability, T/C [17]: 46.6%; viability, T/C [18]: 22.2%; viability, T/C [19]: 110%; viability, T/C [20]: 109%; viability, T/C [21]: 94%; viability, T/C [22]: 78.9%; viability, T/C [23]: 44%; viability, T/C [24]: 20.8%; viability, T/C [25]: 101%; viability, T/C [26]: 84.7%; viability, T/C [27]: 82.2%; viability, T/C [28]: 65.1%; viability, T/C [29]: 40.3%; viability, T/C [30]: 20.5%
Cc1cc(C)c(CNC(=O)c2cc(-c3ccc(CN4CCOCC4)cc3)cc3c2cnn3C2CCCC2)c(=O)[nH]1 + Cn1nnc2c(C(N)=O)ncn2c1=O | 2970 | 3220 | 4590 | 3070 | 1470 | 90.2 | 100 | 90.8 | 80.7 | 48.4 | 11.2 | 110 | 107 | 105 | 91.7 | 50.5 | 14.6 | 102 | 106 | 114 | viability, T/C [16]: 85.4%; viability, T/C [17]: 69.6%; viability, T/C [18]: 13.1%; viability, T/C [19]: 104%; viability, T/C [20]: 116%; viability, T/C [21]: 100%; viability, T/C [22]: 85.4%; viability, T/C [23]: 49.3%; viability, T/C [24]: 10.9%; viability, T/C [25]: 94.6%; viability, T/C [26]: 91.4%; viability, T/C [27]: 87.4%; viability, T/C [28]: 59.6%; viability, T/C [29]: 28.6%; viability, T/C [30]: 6.56%
[2H]c1nc(C)nc([2H])c1-c1cc(NC[C@@H](C)c2cccc3c(C(=O)NC)ccnc23)ncn1 + Cn1nnc2c(C(N)=O)ncn2c1=O | > 10000 | > 10000 | > 10000 | > 10000 | > 10000 | 88.2 | 96.8 | 95.9 | 71.2 | 93.4 | 76.9 | 108 | 91.8 | 102 | 105 | 109 | 94.4 | 99.2 | 114 | 110 | viability, T/C [16]: 107%; viability, T/C [17]: 112%; viability, T/C [18]: 84.2%; viability, T/C [19]: 105%; viability, T/C [20]: 113%; viability, T/C [21]: 104%; viability, T/C [22]: 110%; viability, T/C [23]: 101%; viability, T/C [24]: 85.5%; viability, T/C [25]: 82.7%; viability, T/C [26]: 91.3%; viability, T/C [27]: 87.4%; viability, T/C [28]: 86.5%; viability, T/C [29]: 88.2%; viability, T/C [30]: 83.5%
